By IC50 is commonly meant the concentration that gives 50% inhibition. Higher therefore signals weaker potency in that assay.

From patent US20240228487A1, “FUSED HETEROCYCLIC COMPOUND AND APPLICATION THEREOF, PHARMACEUTICAL COMPOSITIONS CONTAINING SAME AND APPLICATION THEREOF” (ZHEJIANG UNIVERSITY, priority 2021, published 2024) come the findings set out here.

The test system of assay [1] is dopaminergic neurons differentiated from iPSC derived from disseminated PD patients. The assay can be described thus: mitochondrial fusion morphology (Mitotracker, Girk2 labeling) of iPSC differentiated dopaminergic neurons. The assay is classed as cell-based, human. Conditions: II-23 0.6 μM, ACA 0.5 μM; Mitotracker staining, Girk2-positive neurons. How it is done: Using normal and disseminated PD patient-derived induced pluripotent stem cells (iPSC), performing drug interventions using the TRPM2 inhibitors ACA and II-23 after they were induced and differentiated into mature dopaminergic neurons, the drug treating method is as follows: • a. Calculating the materials for the experiment, and starting preparing when the dopaminergic neurons are differentiated to the 8th day. The petri dishes should be treated with 33 μg/mL PDL overnight and washed with sterilized water. After drying, 2 μg/mL of laminin was added and incubated overnight. Both PDL and laminin can be recycled for reuse. • b. […] Fluorescence confocal imaging was performed using a confocal dish inoculated with 2 mL/dish, and cell viability assays were performed using a 96-well plate inoculated with 100 μL/well. […]
Positive dopamine neurons were labeled with a dopaminergic neuron marker molecule Girk2 antibody susceptible for SNc, and cellular mitochondria were labeled with the mitochondrial dye mitotracker as in FIG. 15. […] Finally, performing the fluorescence imaging: removing the secondary antibody, and washing three times with 1×PBS, adding 50% Glycerol for fluorescence protection, and then imaging with a Zeiss LSM880 laser confocal microscope, as shown in FIG. 15.

The next assay addresses T1, human TRPM2 channels (Homo sapiens, UniProt O94759).
T1 construct: expressed in transfected cells
The assay can be described thus: whole cell patch clamp, inhibition of TRPM2 channel current. It is filed as cell-based. Conditions: HEK293 cells stably expressing human TRPM2, 500 μM ADPR. Here is the method:
The fused heterocyclic compound of the present invention has an inhibitory effect on the TRPM2 channel, and its pharmacological activity is measured using whole cell patch clamp technology, the corresponding steps are as follows: Incubating HEK293 cells stably expressing human TRPM2 channels in DMEM/F-12 medium containing 10% bovine serum, 50 units/mL of penicillin and […] of streptomycin under the condition of 5% CO2 and 37° C. The cells before testing are stored in the extracellular fluid (147 mM NaCl, 2 mM KCl, 1 mM MgCl2, 2 mM CaCl2, 10 mM HEPES, 13 mM glucose, pH 7.4). The electrode is filled with the electrode internal solution (147 mM NaCl, 0.05 mM EGTA, 1 mM MgCl2, 10 mM HEPES, 0.5 mM ADPR, pH=7.3), and the resistance is maintained at 3-5 M Ω. Administering ADPR into cells through electrodes, and detecting the ADPR concentration used to activate TRPM2 as 500 μM, when detecting a stable current, perfusing the corresponding concentration of fused heterocyclic compound II-1 into the extracellular fluid for at least 60 seconds. record the change in current magnitude using voltage ramp mode, changing the voltage from −100 mV to+100 mV within 500 ms, with a normal clamp voltage of 0 mV and a TRPM every 5 seconds; finally, replacing the extracellular fluid with a solution with pH=5.0 to block the TRPM2 current, the electrophysiological current test results obtained are shown in Table 1, and the electrophysiological current graph obtained is shown in FIG. 1. Similarly, administering corresponding concentrations of other fused heterocyclic compounds (II-2˜II-54, III-1˜III-11) into the extracellular fluid, taking electrophysiological tests using the same method, the results are shown in Table 1. The electrophysiological representative current graphs of some fused heterocyclic compounds (II-9, II-19, and II-36) inhibiting TRPM2 channel current are shown in FIG. 1.
On the technique in general: The patch-clamp technique gives a direct electrical read-out from membranes.

T1 sequence (O94759 whole entry): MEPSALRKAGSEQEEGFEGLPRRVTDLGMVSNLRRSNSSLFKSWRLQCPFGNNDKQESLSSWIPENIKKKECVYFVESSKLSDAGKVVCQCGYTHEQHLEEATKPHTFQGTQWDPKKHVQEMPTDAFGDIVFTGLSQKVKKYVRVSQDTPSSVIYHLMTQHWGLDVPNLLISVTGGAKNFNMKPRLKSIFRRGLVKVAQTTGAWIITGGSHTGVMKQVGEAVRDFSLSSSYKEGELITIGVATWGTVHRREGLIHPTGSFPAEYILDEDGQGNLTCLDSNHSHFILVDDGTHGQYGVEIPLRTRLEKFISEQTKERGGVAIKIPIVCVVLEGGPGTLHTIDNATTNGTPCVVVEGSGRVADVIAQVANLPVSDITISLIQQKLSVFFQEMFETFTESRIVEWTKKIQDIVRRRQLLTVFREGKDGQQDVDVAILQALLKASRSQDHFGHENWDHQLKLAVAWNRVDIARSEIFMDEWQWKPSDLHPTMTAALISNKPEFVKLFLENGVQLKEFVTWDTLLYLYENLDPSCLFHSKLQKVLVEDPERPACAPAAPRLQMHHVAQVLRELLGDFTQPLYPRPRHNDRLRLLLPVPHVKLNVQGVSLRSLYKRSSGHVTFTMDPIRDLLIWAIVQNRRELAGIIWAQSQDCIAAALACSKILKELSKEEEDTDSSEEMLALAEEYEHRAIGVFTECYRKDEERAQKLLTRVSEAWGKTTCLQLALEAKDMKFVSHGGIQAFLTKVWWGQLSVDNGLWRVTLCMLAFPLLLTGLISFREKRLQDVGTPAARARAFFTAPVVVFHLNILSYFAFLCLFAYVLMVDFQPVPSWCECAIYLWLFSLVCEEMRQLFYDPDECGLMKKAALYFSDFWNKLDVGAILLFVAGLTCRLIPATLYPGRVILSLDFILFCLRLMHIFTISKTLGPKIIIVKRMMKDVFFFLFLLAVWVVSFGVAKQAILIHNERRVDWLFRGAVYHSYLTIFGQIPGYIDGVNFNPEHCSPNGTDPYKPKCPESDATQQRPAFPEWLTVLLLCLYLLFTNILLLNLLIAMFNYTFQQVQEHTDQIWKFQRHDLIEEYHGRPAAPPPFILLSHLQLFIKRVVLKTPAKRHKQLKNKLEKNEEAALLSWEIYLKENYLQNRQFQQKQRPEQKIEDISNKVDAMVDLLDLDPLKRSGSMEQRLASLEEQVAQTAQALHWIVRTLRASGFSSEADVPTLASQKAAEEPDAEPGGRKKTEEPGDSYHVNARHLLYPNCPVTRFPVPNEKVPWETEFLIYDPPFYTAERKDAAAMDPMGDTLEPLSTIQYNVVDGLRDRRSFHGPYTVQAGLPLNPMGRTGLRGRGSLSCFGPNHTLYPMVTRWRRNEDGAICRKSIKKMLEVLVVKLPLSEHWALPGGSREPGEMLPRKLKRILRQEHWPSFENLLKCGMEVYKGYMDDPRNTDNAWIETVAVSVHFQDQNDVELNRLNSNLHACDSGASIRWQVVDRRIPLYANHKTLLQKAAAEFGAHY

In the case of `CCN(CC)C(=O)c1cc(C(=O)c2ccccc2)n2cccc2c1` [II-23, 5-Benzoyl-N, N-diethylindolizine-7-formamide], the “excessive mitochondrial fusion in dopaminergic neurons derived from PD patients” value in assay [1] is on record as “reversed”. The IC50 against human TRPM2 channels was in the range of 1 to 10 µM.
